Entries after “also recorded” stand apart in the source; their conditions may differ.
Columns and labels:
[1] = system: primary human orbital fibroblasts; experiment: TGFβ-induced myofibroblast formation, αSMA Western blot, primary human orbital fibroblasts; details: for overt toxicity / TGFβ-induced myofibroblast differentiation (αSMA expression): 2-500 μM
Description: Total protein was isolated from 0.5-2×10^6 cells and lysed in 60 mM Tris, pH 6.8, 2% SDS containing 1× protease inhibitor cocktail (Sigma, St. Louis, Mo.). The lysates were passed through a 26 gauge needle 5-6 times to shear genomic DNA. Protein concentrations were determined using the detergent compatible protein assay (BioRad). Total protein (1-10 ug per lane) was subjected to SDS-PAGE. Protein gels were transferred to PVDF membrane (Millipore) and probed with antibodies as specified. Western blot band intensities were quantified using ImageLab software (BioRad). Protein expression was normalized to β-tubulin levels.
Primary human orbital fibroblasts, primary human lung fibroblasts, and primary mouse lung fibroblasts were treated with TGFβ and HCPT (50 nM, 500 nM, and 5000 nM) or SNC (500 nM) or AXD (0.5 μM, 5 μM, and 50 μM) to assess the ability of HCPT to inhibit myofibroblast formation. […] Western blots were performed using cell lysates from the fibroblasts exposed to TGFβ to assess TGFβ-dependent αSMA expression.
Primary human orbital fibroblasts were treated with TGFβ and either 6-formylindolo(3,2-b)carbazole (“FICZ”, 1 μM), Omeprazole (“Ome”, 2 μM, 10 μM, 50 μM, 100 μM, 250 μM, 500 μM), or Flutamide (“Flut”, 2 μM, 10 μM, 50 μM, 100 μM, 250 μM, 500 μM) to assess their ability to inhibit myofibroblast formation. […] Western blots were performed using cell lysates from the fibroblasts exposed to TGFβ to assess TGFβ-dependent αSMA expression. Densitometry analyses of the Western blots were also performed.

[2] = system: TGFβ-induced luciferase activity; experiment: Spectrum collection small molecule screen with TGFβ-dependent SBE-luciferase HEK293FT reporter cell line; assay type: cell-based, human; details: HEK293FT-luc reporter line
Description: The minimal thymidine kinase promoter was amplified by PCR with the following forward and reverse primers, of which the forward primer contained four tandem Smad binding elements (SBE):
Restriction sites in the primers are underlined. The resultant PCR product was TOPO cloned (Invitrogen) and the correct insert was verified by DNA sequencing. The construct was digested with SacI-HindIII and the SBEx4-TK insert was purified and ligated with the pGL4.15 vector (Promega). Clones were verified by restriction digest and then tested for TGFβ responsiveness in transient transfections of 293FT cells. […] Clones were selected by treatment with 200 μg/ml hygromycin. 20 clones were selected and screened for TGFβ-induced luciferase activity. One clone that was robustly responsive was subsequently used in the small molecule screen.
Excessive scarring results from the formation of too many myofibroblasts and the production of too much extracellular matrix material such as collagen. Since TGFβ drives the formation of myofibroblasts in part through activating the Smad pathway, a reporter construct was designed to serve as a measure of TGFβ-induced Smad activity (FIG. 1A). Four tandem Smad binding elements (SBE) were inserted upstream of the minimal thymidine kinase promoter. The SBEx4-TK promoter was inserted into the pGL4.15 vector which contains a destabilized firefly luciferase gene and the hygromycin resistance gene. The pSBEx4-TK-luc-Hygro plasmid was then introduced into HEK293FT cells by lipofection. Stable clones were generated and screened for TGFβ induced luciferase activity. One clone was selected that consistently gave a 15 to 20-fold induction of luciferase activity when cells were treated with TGFβ for 24 hours (FIG. 1B).
To find compounds that inhibit TGFβ activity and thus may be novel anti-scarring compounds, the Spectrum collection of 2,300 small molecules was screened with the cell line. […] Salinomycin, an antibiotic produced from Streptomyces albus is used as coccidiostat agent in animal feed (Knirschova et al., “Multiple regulatory genes in the salinomycin biosynthetic gene cluster of Streptomyces albus CCM 4719,” Folia Microbiologica 52:359-365 (2007), which is hereby incorporated by reference in its entirety). […] Thus, further investigation was made to assess the use of salinomycin as an anti-scarring agent.

[3] = system: TGFβ-induced SBE-luciferase activity; experiment: Secondary dual luciferase screen (SBE-luciferase normalized to constitutive Renilla luciferase); assay type: cell-based, human; details: secondary dual luciferase screen, several doses (low micromolar)
Description: FIG. 1A is a diagram of Smad-dependent reporter construct. Four tandem Smad binding elements (SBE) were inserted upstream of the minimal Thymidine Kinase (TK) promoter. Downstream of the promoter is a destabilized version of the firefly luciferase gene (luc2P) present in the pLuc2P-Hygro plasmid which also harbors the hygromycin resistance gene. The plasmid was introduced into HEK293FT cell line and individual colonies were selected with hygromycin (200 ug/ml) to develop a Smad/TGFβ dependent-luciferase reporter cell line. FIG. 1B is a graph illustrating the response of the reporter cell line to 1 ng/ml treatment of TGFβ for 20 hours, which results in an approximately 20-fold increase of luciferase activity.
They are: Benzbromarone (“BZB”), Bithionate sodium (“BTS”), Piplartine (piperlongumine) (“PPT”), Amsacrine (“ASC”), and Alexidine (“AXD”). A secondary luciferase screening assay was performed to determine specificity and dose responsiveness of these compounds in comparison to salinomycin (“SNC”). The secondary screen utilizes dual luciferase technology that includes the above mentioned SBE-luciferase in addition to a Renilla luciferase that is under control of the constitutive SV40 promoter. Therefore the SBE-luciferase activity can be normalized to the Renilla luciferase activity to control for toxicity and non-specific effects. The secondary screen can thus be used to remove small molecules that display overt toxicity and/or non-specific effects on the primary assay.

[4] = system: TGFβ-dependent myofibroblast formation in primary human fibroblasts; experiment: Myofibroblast formation assay in primary human fibroblasts (morphology, Western blot) for Spectrum hits; assay type: cell-based; details: for α-SMA and calponin expression in human fibroblasts: FIG. 14 lanes: PPT 1, 5 uM, AXD 0.1, 1 uM, SNC 100 nM, 1 uM; for α-SMA and calponin expression in human fibroblasts / TGFβ-dependent αSMA and calponin (marker) expression / myofibroblast formation / phenotype: BTS, ASC; for TGFβ-dependent αSMA and calponin (marker) expression: higher dose: PPT 5 μM; for TGFβ-dependent αSMA and calponin (marker) expression / myofibroblast formation / phenotype: AXD 1 μM; for myofibroblast formation / phenotype: lowest effective dose from secondary screen: PPT 5 μM, SNC 0.1 μM, TGFβ 1 ng/ml, 72 hours
Description: Using the lowest effective dose from the secondary screening assay, PPT (5 μM), ASC (1 μM), BTS (1 μM), and AXD (1 μM) were compared to 0.1 μM SNC using primary human fibroblasts (FIG. 13). The myofibroblast formation assay consists of the following protocol: fibroblasts are treated with the aforementioned small molecules and treated with TGFβ (1 ng/ml) for 72 hours. The cells were then either photographed for morphological analysis or collected, lysed and analyzed by Western blot for the myofibroblast markers alpha-smooth muscle actin (αSMA) and calponin. β-tubulin was used as a loading control.
PPT was used at 1 and 5 μM (lanes 3 and 4), BTS was used at 0.1 and 1 μM (lanes 5 and 6), ASC was used at 0.1 and 1 μM (lanes 7 and 8), SNC was used at 100 nM and 1 μM (lanes 9 and 10), and AXD was used at 0.1 and 1 μM (lanes 11 and 12).

Row | SMILES | αSMA expression ([1]; 100 μM) | overt toxicity [1] | TGFβ-induced myofibroblast differentiation (αSMA expression) [1] | inhibition of TGFβ-induced luciferase activity, initial screen [2] | inhibition of luciferase expression, dose responsiveness [3] | α-SMA and calponin expression in human fibroblasts [4] | TGFβ-dependent αSMA and calponin (marker) expression [4] | myofibroblast formation / phenotype [4] | expression of Thy1 ([4]; high dose, 1 μM)
1 | COc1ccc2[nH]c([S+]([O-])Cc3ncc(C)c(OC)c3C)nc2c1 (racemic) [omeprazole] | sub-baseline levels | No overt toxicity was observed | inhibited TGFβ-induced myofibroblast differentiation; also recorded: inhibits human orbital fibroblast to myofibroblast differentiation |  |  |  |  |  | 
2 | COc1cc(NS(C)(=O)=O)ccc1Nc1c2ccccc2nc2ccccc12 [ASC, amsacrine] |  |  |  | inhibit TGFβ-induced luciferase | substantially inhibited luciferase expression; also recorded: strong luciferase inhibition | inhibit β-dependent α-SMA and calponin expression | inhibited marker expression | inhibit myofibroblast phenotype; also recorded: inhibits myofibroblast formation | 
3 | CCCCC(CC)CNC(=N)NC(=N)NCCCCCCNC(=N)NC(=N)NCC(CC)CCCC (centres unmarked) [AXD, alexidine] |  |  |  | inhibit TGFβ-induced luciferase | substantially inhibited luciferase expression; also recorded: strong luciferase inhibition | inhibit β-dependent α-SMA and calponin expression | inhibited marker expression | inhibit myofibroblast phenotype; also recorded: inhibits myofibroblast formation | did inhibit Thy1
4 | Oc1c(Cl)cc(Cl)cc1Sc1cc(Cl)cc(Cl)c1O [BTS, bithionate sodium] |  |  |  | inhibit TGFβ-induced luciferase | substantially inhibited luciferase expression; also recorded: strong luciferase inhibition | inhibit β-dependent α-SMA and calponin expression | inhibited marker expression | inhibit myofibroblast phenotype; also recorded: inhibits myofibroblast formation | 
5 | COc1cc(/C=C/C(=O)N2CCC=CC2=O)cc(OC)c1OC [PPT, piplartine (piperlongumine)] |  |  |  | inhibit TGFβ-induced luciferase | substantially inhibited luciferase expression; also recorded: strong luciferase inhibition | inhibit β-dependent α-SMA and calponin expression | inhibited marker expression | inhibit myofibroblast phenotype; also recorded: inhibits myofibroblast formation | 
6 | CC(C)C(=O)Nc1ccc([N+](=O)[O-])c(C(F)(F)F)c1 [flutamide, Flutamide] |  | No overt toxicity was observed | inhibited TGFβ-induced myofibroblast differentiation; also recorded: inhibits human orbital fibroblast to myofibroblast differentiation |  |  |  |  |  | 
